# Target: T1, GR (Homo sapiens, UniProt P04150)
# T1 construct: expressed in transfected cells; host or cells: CHO-K1
# T1 sequence (P04150 1-777): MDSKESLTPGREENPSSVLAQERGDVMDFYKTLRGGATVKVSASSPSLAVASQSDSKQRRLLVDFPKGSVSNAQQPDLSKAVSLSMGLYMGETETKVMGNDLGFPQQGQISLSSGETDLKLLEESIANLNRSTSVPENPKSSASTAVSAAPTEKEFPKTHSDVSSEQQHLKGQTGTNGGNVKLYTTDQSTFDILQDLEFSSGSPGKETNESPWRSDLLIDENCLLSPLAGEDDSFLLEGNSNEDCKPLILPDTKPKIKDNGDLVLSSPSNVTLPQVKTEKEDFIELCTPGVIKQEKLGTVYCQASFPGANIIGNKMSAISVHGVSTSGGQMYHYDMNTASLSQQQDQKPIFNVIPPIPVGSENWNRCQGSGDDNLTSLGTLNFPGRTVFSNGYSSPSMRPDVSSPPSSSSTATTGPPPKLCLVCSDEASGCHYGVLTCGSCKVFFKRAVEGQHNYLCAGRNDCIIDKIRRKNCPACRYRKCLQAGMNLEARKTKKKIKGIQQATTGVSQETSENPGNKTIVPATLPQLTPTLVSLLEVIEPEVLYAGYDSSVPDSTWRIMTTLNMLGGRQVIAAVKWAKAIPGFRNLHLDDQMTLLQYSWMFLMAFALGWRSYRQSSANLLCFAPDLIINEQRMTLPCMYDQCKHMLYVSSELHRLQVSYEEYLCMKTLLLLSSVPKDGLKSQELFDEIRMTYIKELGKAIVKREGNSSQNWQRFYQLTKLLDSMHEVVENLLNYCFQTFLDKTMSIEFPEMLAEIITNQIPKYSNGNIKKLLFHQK
# Experiment: In Vitro GR Luciferase Reporter Assay (antagonist mode, CHO-K1-GR-MMTV-Luc reporter cells)
# Assay type: cell-based
# Details: antagonist mode, 10 nM Dexamethasone
# Procedure, shortened: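 CHO-K1-GR-MMTV-Luc cells in phenol red-free DMEM with 10% CSS, stimulated with 10 nM dexamethasone (final) and treated with 8-point 1:5 compound dilutions for about 18-24 h at 37° C. Luciferase measured by OneGlo luminescence; IC50 derived for inhibition of GR activity.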
row,Structure (SMILES),IC50
1,"Cn1ccc(S(=O)(=O)N(CCF)[C@H]2CCC3=Cc4c(cnn4-c4ccc(F)cc4)C[C@]3(C(=O)c3cc(F)ccn3)C2)n1 [Example 397, N-(2-fluoroethyl)-N-((4aS,6S)-1-(4-fluorophenyl)-4a-(4-fluoropicolinoyl)-4,4a,5,6,7,8-hexahydro-1H-benzo[f]indazol-6-yl)-1-methyl-1H-pyrazole-3-sulfonamide]",≤ 100 nM
2,"COCCN([C@H]1CCC2=Cc3c(cnn3-c3ccc(F)cc3)C[C@]2(C(=O)c2ncc(C(F)(F)F)s2)C1)S(=O)(=O)c1ncn(C)n1 [Example 398, N-((4aS,6S)-1-(4-fluorophenyl)-4a-(5-(trifluoromethyl)thiazole-2-carbonyl)-4,4a,5,6,7,8-hexahydro-1H-benzo[f]indazol-6-yl)-N-(2-methoxyethyl)-1-methyl-1H-1,2,4-triazole-3-sulfonamide]",≤ 100 nM
3,"Cn1ccc(S(=O)(=O)N(C2CC2)[C@H]2CCC3=Cc4c(cnn4-c4ccc(F)nc4)C[C@]3(C(=O)c3ncc(C(F)(F)F)s3)C2)n1 [Example 399, N-cyclopropyl-N-((4aS,6S)-1-(6-fluoropyridin-3-yl)-4a-(5-(trifluoromethyl)thiazole-2-carbonyl)-4,4a,5,6,7,8-hexahydro-1H-benzo[f]indazol-6-yl)-1-methyl-1H-pyrazole-3-sulfonamide]",≤ 100 nM
4,"Cn1ccc(S(=O)(=O)N(CC(=O)OC(C)(C)C)[C@H]2CCC3=Cc4c(cnn4-c4ccc(F)cc4)C[C@]3(C(=O)c3cc(C(F)(F)F)ccn3)C2)n1 [Example 400, tert-butyl N-((4aS,6S)-1-(4-fluorophenyl)-4a-(4-(trifluoromethyl)picolinoyl)-4,4a,5,6,7,8-hexahydro-1H-benzo[f]indazol-6-yl)-N-((1-methyl-1H-pyrazol-3-yl)sulfonyl)glycinate]",≤ 100 nM
5,"Cn1ccc(S(=O)(=O)N(CC(=O)O)[C@H]2CCC3=Cc4c(cnn4-c4ccc(F)cc4)C[C@]3(C(=O)c3cc(C(F)(F)F)ccn3)C2)n1 [Example 401, N-((4aS,6S)-1-(4-fluorophenyl)-4a-(4-(trifluoromethyl)picolinoyl)-4,4a,5,6,7,8-hexahydro-1H-benzo[f]indazol-6-yl)-N-((1-methyl-1H-pyrazol-3-yl)sulfonyl)glycine]",100 to 1000 nM
6,"Cn1ccc(S(=O)(=O)N(CCF)[C@H]2CCC3=Cc4c(cnn4-c4ccc(F)cc4)C[C@]3(C(=O)c3cc(Cl)ccn3)C2)n1 [Example 403, N-((4aS,6S)-4a-(4-chloropicolinoyl)-1-(4-fluorophenyl)-4,4a,5,6,7,8-hexahydro-1H-benzo[f]indazol-6-yl)-N-(2-fluoroethyl)-1-methyl-1H-pyrazole-3-sulfonamide]",≤ 100 nM
7,"O=C(c1ncc(C(F)(F)F)s1)[C@]12Cc3cnn(-c4ccc(F)cc4)c3C=C1CC[C@H](N(CC(F)F)S(=O)(=O)c1ccc(F)cc1)C2 [Example 405, N-(2,2-difluoroethyl)-4-fluoro-N-((4aS,6S)-1-(4-fluorophenyl)-4a-(5-(trifluoromethyl)thiazole-2-carbonyl)-4,4a,5,6,7,8-hexahydro-1H-benzo[f]indazol-6-yl)benzenesulfonamide]",≤ 100 nM
8,"O=C(c1cc(C(F)(F)F)ccn1)[C@]12Cc3cnn(-c4ccc(F)cc4)c3C=C1CC[C@H](N(CC(F)F)S(=O)(=O)c1ccc(F)cc1)C2 [Example 407, N-(2,2-difluoroethyl)-4-fluoro-N-((4aS,6S)-1-(4-fluorophenyl)-4a-(4-(trifluoromethyl)picolinoyl)-4,4a,5,6,7,8-hexahydro-1H-benzo[f]indazol-6-yl)benzenesulfonamide]",≤ 100 nM
9,"Cn1ccc(S(=O)(=O)N([C@H]2CCC3=Cc4c(cnn4-c4ccc(F)cc4)C[C@]3(C(=O)c3ncc(C(F)(F)F)s3)C2)[C@H]2C[C@@H](C#N)C2)n1 [Example 408, N-((1s,3R)-3-cyanocyclobutyl)-N-((4aS,6S)-1-(4-fluorophenyl)-4a-(5-(trifluoromethyl)thiazole-2-carbonyl)-4,4a,5,6,7,8-hexahydro-1H-benzo[f]indazol-6-yl)-1-methyl-1H-pyrazole-3-sulfonamide]",≤ 100 nM
10,"Cn1cnc(S(=O)(=O)N(CC2CC2)[C@H]2CCC3=Cc4c(cnn4-c4ccc(F)cc4)C[C@]3(C(=O)c3cc(Cl)ccn3)C2)n1 [Example 410, N-((4aS,6S)-4a-(4-chloropicolinoyl)-1-(4-fluorophenyl)-4,4a,5,6,7,8-hexahydro-1H-benzo[f]indazol-6-yl)-N-(cyclopropylmethyl)-1-methyl-1H-1,2,4-triazole-3-sulfonamide]",≤ 100 nM

# The remaining lines, values ahead:
row,IC50,Structure (SMILES)
1,≤ 100 nM,"Cn1ccc(S(=O)(=O)N(C2CC2)[C@H]2CCC3=Cc4c(cnn4-c4ccc(F)nc4)C[C@]3(C(=O)c3cc(C(F)(F)F)ccn3)C2)n1 [Example 402, N-cyclopropyl-N-((4aS,6S)-1-(6-fluoropyridin-3-yl)-4a-(4-(trifluoromethyl)picolinoyl)-4,4a,5,6,7,8-hexahydro-1H-benzo[f]indazol-6-yl)-1-methyl-1H-pyrazole-3-sulfonamide]"
2,≤ 100 nM,"COCCOCCN([C@H]1CCC2=Cc3c(cnn3-c3ccc(F)cc3)C[C@]2(C(=O)c2cc(C(F)(F)F)ccn2)C1)S(=O)(=O)c1ccc(F)cc1 [Example 404, 4-fluoro-N-((4aS,6S)-1-(4-fluorophenyl)-4a-(4-(trifluoromethyl)picolinoyl)-4,4a,5,6,7,8-hexahydro-1H-benzo[f]indazol-6-yl)-N-(2-(2-methoxyethoxy)ethyl)benzene-sulfonamide]"
3,≤ 100 nM,"Cn1cc(S(=O)(=O)N(C2CC(F)(F)C2)[C@H]2CCC3=Cc4c(cnn4-c4ccc(F)cc4)C[C@]3(C(=O)c3ncc(C(F)(F)F)s3)C2)cn1 [Example 406, N-(3,3-difluorocyclobutyl)-N-((4aS,6S)-1-(4-fluorophenyl)-4a-(5-(trifluoromethyl)thiazole-2-carbonyl)-4,4a,5,6,7,8-hexahydro-1H-benzo[f]indazol-6-yl)-1-methyl-1H-pyrazole-4-sulfonamide]"
4,≤ 100 nM,"Cn1cnc(S(=O)(=O)N(CC2CC2)[C@H]2CCC3=Cc4c(cnn4-c4ccc(F)cc4)C[C@]3(C(=O)c3cc(F)ccn3)C2)n1 [Example 409, N-(cyclopropylmethyl)-N-((4aS,6S)-1-(4-fluorophenyl)-4a-(4-fluoropicolinoyl)-4,4a,5,6,7,8-hexahydro-1H-benzo[f]indazol-6-yl)-1-methyl-1H-1,2,4-triazole-3-sulfonamide]"
5,≤ 100 nM,"Cn1cc(S(=O)(=O)N(C2CC(F)(F)C2)[C@H]2CCC3=Cc4c(cnn4-c4ccc(F)cc4)C[C@]3(C(=O)c3cc(C(F)(F)F)ccn3)C2)cn1 [Example 411, N-(3,3-difluorocyclobutyl)-N-((4aS,6S)-1-(4-fluorophenyl)-4a-(4-(trifluoromethyl)picolinoyl)-4,4a,5,6,7,8-hexahydro-1H-benzo[f]indazol-6-yl)-1-methyl-1H-pyrazole-4-sulfonamide]"
